Measured values as given in US9090628B2, “Benzoxazepin compounds selective for PI3K P110 delta and methods of use” (GENENTECH, INC., priority 2011, dated 2015).

Legend:
p110 delta = p110 delta (Homo sapiens (Human), UniProt O00329); assay: PI3K isoform inhibition assay, p110 delta (fluorescence polarization displacement); assay type: biochemical
p110 alpha = p110 alpha (Homo sapiens (Human), UniProt P42336); assay: PI3K isoform inhibition assay, p110 alpha (for alpha/delta selectivity); details: ratio of biochemical IC50 values
Chain of p110 alpha (P42336 whole entry, canonical isoform): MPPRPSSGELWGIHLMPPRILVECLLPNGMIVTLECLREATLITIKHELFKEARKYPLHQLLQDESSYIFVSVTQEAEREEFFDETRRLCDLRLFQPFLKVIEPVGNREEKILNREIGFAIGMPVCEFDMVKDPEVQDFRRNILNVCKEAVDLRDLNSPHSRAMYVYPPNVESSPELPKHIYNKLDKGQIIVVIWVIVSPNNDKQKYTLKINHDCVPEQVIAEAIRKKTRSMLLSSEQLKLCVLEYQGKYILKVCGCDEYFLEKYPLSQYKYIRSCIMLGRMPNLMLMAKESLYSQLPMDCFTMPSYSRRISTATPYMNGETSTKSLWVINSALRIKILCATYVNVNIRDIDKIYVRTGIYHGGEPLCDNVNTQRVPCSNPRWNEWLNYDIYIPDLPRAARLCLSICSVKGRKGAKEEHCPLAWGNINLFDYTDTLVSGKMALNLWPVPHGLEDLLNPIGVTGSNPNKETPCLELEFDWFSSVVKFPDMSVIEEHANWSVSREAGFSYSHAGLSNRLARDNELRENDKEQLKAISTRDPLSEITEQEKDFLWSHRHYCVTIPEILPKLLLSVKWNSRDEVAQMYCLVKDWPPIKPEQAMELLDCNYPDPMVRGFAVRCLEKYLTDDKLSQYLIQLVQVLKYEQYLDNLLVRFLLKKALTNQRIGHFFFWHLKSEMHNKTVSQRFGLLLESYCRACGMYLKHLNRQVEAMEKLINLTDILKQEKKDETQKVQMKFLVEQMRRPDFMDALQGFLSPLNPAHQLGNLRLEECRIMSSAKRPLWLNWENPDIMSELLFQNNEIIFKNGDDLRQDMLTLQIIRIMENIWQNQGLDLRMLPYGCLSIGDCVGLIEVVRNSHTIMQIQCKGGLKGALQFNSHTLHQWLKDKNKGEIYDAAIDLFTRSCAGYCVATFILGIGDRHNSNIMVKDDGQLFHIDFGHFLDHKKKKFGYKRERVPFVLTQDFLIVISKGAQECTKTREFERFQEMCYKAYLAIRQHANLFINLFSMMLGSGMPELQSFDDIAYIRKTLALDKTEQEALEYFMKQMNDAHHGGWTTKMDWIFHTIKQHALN
Chain of p110 alpha (P27986 whole entry partner, canonical isoform): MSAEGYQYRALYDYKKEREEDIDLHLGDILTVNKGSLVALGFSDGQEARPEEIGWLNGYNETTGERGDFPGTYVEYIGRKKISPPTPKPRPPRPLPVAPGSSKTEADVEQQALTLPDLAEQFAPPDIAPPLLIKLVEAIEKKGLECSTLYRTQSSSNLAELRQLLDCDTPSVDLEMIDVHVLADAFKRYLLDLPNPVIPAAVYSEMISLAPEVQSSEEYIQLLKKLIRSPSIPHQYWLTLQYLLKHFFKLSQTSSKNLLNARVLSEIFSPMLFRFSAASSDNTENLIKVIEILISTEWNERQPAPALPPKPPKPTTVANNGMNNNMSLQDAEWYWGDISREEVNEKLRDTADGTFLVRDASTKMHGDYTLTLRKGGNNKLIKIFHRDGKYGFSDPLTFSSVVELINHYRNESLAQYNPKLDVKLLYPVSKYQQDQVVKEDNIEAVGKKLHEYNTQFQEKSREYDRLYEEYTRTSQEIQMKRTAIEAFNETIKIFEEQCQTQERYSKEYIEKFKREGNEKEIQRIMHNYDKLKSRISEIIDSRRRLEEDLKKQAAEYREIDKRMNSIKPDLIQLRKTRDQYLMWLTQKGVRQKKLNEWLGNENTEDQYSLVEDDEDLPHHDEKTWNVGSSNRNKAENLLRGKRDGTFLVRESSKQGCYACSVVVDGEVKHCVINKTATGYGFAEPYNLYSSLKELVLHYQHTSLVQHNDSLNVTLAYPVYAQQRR
Method in brief: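 Fluorescence polarization displacement of a fluorescent PIP3 probe from GRP-1 detector by PI3K-formed PIP3; p110α/p85α at 40 ng/mL with 10 μM PIP2 substrate.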

Chain of p110 delta (O00329 whole entry, canonical isoform): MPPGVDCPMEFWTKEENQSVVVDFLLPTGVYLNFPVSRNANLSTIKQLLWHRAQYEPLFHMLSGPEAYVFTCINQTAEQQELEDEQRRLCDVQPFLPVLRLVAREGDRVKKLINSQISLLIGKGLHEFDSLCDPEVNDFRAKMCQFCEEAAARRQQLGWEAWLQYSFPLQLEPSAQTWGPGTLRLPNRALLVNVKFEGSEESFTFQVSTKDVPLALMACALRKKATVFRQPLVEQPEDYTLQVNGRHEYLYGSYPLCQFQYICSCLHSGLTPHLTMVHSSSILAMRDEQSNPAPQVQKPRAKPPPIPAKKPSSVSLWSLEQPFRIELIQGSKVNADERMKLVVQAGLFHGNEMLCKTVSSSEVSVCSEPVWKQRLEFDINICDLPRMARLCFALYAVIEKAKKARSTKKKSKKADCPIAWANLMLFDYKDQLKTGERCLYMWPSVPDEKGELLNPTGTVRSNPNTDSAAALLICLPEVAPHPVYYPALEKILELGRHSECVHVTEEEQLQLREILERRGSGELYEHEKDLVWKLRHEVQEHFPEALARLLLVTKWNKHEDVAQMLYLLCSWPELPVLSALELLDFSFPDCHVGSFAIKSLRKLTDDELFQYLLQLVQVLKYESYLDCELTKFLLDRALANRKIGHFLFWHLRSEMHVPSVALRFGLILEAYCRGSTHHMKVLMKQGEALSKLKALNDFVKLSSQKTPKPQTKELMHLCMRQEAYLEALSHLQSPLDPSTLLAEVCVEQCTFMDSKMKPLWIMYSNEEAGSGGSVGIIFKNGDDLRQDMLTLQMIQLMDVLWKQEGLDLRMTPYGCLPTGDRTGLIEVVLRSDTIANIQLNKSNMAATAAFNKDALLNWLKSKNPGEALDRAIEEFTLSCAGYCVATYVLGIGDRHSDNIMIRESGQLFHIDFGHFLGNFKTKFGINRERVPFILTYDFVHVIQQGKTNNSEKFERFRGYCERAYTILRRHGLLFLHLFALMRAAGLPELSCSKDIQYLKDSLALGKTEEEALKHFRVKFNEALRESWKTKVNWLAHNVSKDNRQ
Chain of p110 delta (P27986 whole entry partner, canonical isoform): as the sequence (P27986 whole entry partner, canonical isoform) above

For `Cc1nc(-c2cn3c(n2)-c2ccc(-n4ccnc4C4CCCN(C(C)C)C4)cc2OCC3)n(C(C)C)n1` (stereo not drawn) [Example 369, 2-(2-isopropyl-5-methyl-1,2,4-triazol-3-yl)-9-[2-(1-isopropyl-3-piperidyl)imidazol-1-yl]-5,6-dihydroimidazo[1,2-d][1,4]benzoxazepine], the IC50 (p110 delta) was 3.09 nM and the “IC50 p110 alpha/IC50 p110 delta” value (p110 alpha) was 40.4.

`Cc1nc(-c2cn3c(n2)-c2cnc(-c4cnn(C)c4C4CCCN(C(C)C)C4)cc2OCC3)n(C(C)C)n1` (stereo not drawn) [Example 370, 2-(1-isopropyl-3-methyl-1H-1,2,4-triazol-5-yl)-9-(5-(1-isopropylpiperidin-3-yl)-1-methyl-1H-pyrazol-4-yl)-5,6-dihydroimidazo[1,2-d]pyrido[3,4-f][1,4]oxazepine] was tested, and the IC50 (p110 delta) was 0.571 nM and the “IC50 p110 alpha/IC50 p110 delta” value (p110 alpha) was 16.1.

With `COc1cc2c(cc1[C@H](C)N1CCN(C(C)(C)C)CC1)-c1nc(-c3nc(C)nn3C(C)C)cn1CCO2` [Example 371, 10-[(1S)-1-(4-tert-butylpiperazin-1-yl)ethyl]-2-(2-isopropyl-5-methyl-1,2,4-triazol-3-yl)-9-methoxy-5,6-dihydroimidazo[1,2-d][1,4]benzoxazepine] the IC50 (p110 delta) was 5.3 nM and the “IC50 p110 alpha/IC50 p110 delta” value (p110 alpha) was 11.7.

For `Cc1nc(-c2cn3c(n2)-c2ccc(-c4cnn(C)c4C4CN(C(C)C)CCO4)cc2OCC3)n(C(C)C)n1` (stereo not drawn) [Example 372, 2-(2-isopropyl-5-methyl-1,2,4-triazol-3-yl)-9-[5-(4-isopropylmorpholin-2-yl)-1-methyl-pyrazol-4-yl]-5,6-dihydroimidazo[1,2-d][1,4]benzoxazepine], the IC50 (p110 delta) was 0.992 nM and the “IC50 p110 alpha/IC50 p110 delta” value (p110 alpha) was 18.

In the case of `Cc1nc(-c2cn3c(n2)-c2cc(C(C)N4CCN(C)CC4)c(F)cc2OCC3)n(C(C)C)n1` (stereo not drawn) [Example 373, 9-fluoro-2-(2-isopropyl-5-methyl-1,2,4-triazol-3-yl)-10-[1-(4-methylpiperazin-1-yl)ethyl]-5,6-dihydroimidazo[1,2-d][1,4]benzoxazepine], the IC50 (p110 delta) is reported as 3.13 nM and the “IC50 p110 alpha/IC50 p110 delta” value (p110 alpha) is reported as 15.7.

`CCN1CCN(C(C)c2cc3c(cc2F)OCCn2cc(-c4nc(C)nn4C(C)C)nc2-3)CC1` (stereo not drawn) [Example 374, 10-[1-(4-ethylpiperazin-1-yl)ethyl]-9-fluoro-2-(2-isopropyl-5-methyl-1,2,4-triazol-3-yl)-5,6-dihydroimidazo[1,2-d][1,4]benzoxazepine] was tested, and the IC50 (p110 delta) was 4.85 nM and the “IC50 p110 alpha/IC50 p110 delta” value (p110 alpha) was 17.9.
